Legend:
Assay type in all cases: in vivo
Echinochloa crus-galli [1] = test: Test Example 1: herbicidal effect test by treatment of rice paddy soil (immediately after seeding); details: 120 g/10a active ingredient, dry weight vs untreated area, 14 days after treatment
Summary of the method: (§1)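 Applied at 120 g a.i./10 ares as diluted emulsion dropped into flooded (~3 cm) paddy soil pots right after sowing seeds 0–1 cm deep; greenhouse, two replicates. At day 14, dry weight of treated versus untreated plants gives % herbicidal rate.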

Scirpus juncoides [2] = test: as above; details: 120 g/10a active ingredient, dry weight vs untreated area, 14 days after treatment
Summary of the method: as §1

[3] = test system: broad leaf weeds (Lindernia pyxidaria and Monochoria vaginalis); test: as above; details: 120 g/10a active ingredient, dry weight vs untreated area, 14 days after treatment; for pest or weed control at 1200 g/ha: 336 h
Summary of the method: as §1

Echinochloa crus-galli [4] = test: Test Example 2: herbicidal effect test by treatment during growing period in paddy rice cultivation (seven days after seeding); details: 120 g/10a active ingredient, assessed 14 days after treatment, dry weight vs untreated area
Summary of the method: (§2)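 Post-emergence paddy water application: compounds were formulated as emulsions, diluted and dropped into flooded pots seven days after sowing at a rate equivalent to 120 g per 10 ares. Efficacy was taken as dry-weight reduction relative to untreated controls after 14 days.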

Scirpus juncoides [5] = test: as above; details: 120 g/10a active ingredient, assessed 14 days after treatment, dry weight vs untreated area
Summary of the method: as §2

[6] = test system: broad leaf weeds (Lindernia pyxidaria and Monochoria vaginalis); test: as above; details: 120 g/10a active ingredient, assessed 14 days after treatment, dry weight vs untreated area; for pest or weed control at 1200 g/ha: 336 h
Summary of the method: as §2

Amaranthus viridis [7] = test: Test Example 3: herbicidal effect test by treatment of dry field farming soil (one day after seeding); details: 120 g/10a active ingredient, evaluated 14 days after treatment
Summary of the method: (§3)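 Dry-field alluvium pots; weed seeds incorporated in top 1 cm; soil spray of diluted emulsion 1 d after seeding, 120 g a.i./10 a in 100 L/10 a. Readout: % reduction of dry weight vs untreated, day 14, duplicates.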

Chenopodium album [8] = test: as above; details: 120 g/10a active ingredient, evaluated 14 days after treatment
Summary of the method: as §3

Echinochloa crus-galli [9] = test: as above; details: 120 g/10a active ingredient, evaluated 14 days after treatment
Summary of the method: as §3

southern crabgrass [10] = test: as above; details: 120 g/10a active ingredient, evaluated 14 days after treatment
Summary of the method: as §3

Amaranthus viridis [11] = test: Test Example 4: herbicidal effect test by treatment of leave and stem in dry field farming (seven days after seeding); details: 120 g/10a active ingredient, emulsion sprayed seven days after seeding, evaluated 14 days after treatment
Summary of the method: (§4)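 Duplicate pots were scored 14 days post-spray by dry weight, herbicidal rate = {1 − treated/untreated average dry weight} × 100. The water-diluted emulsion, equivalent to 120 g active ingredient per 10 ares in 100 L, was applied seven days after sowing 20 seeds each into the upper 1 cm of alluvial soil.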

Chenopodium album [12] = test: as above; details: 120 g/10a active ingredient, emulsion sprayed seven days after seeding, evaluated 14 days after treatment
Summary of the method: as §4

Echinochloa crus-galli [13] = test: as above; details: 120 g/10a active ingredient, emulsion sprayed seven days after seeding, evaluated 14 days after treatment
Summary of the method: as §4

southern crabgrass [14] = test: as above; details: 120 g/10a active ingredient, emulsion sprayed seven days after seeding, evaluated 14 days after treatment
Summary of the method: as §4

Row | Structure (SMILES) | Herbicidal rate (%) Echinochloa crus-galli (Echinochloa crus-galli [1]) [%] | Herbicidal rate (%) Scirpus juncoides (Scirpus juncoides [2]) [%] | Herbicidal rate (%) Lindernia pyxidaria ([3]; Lindernia pyxidaria) [%] | Herbicidal rate (%) Monochoria vaginalis ([3]; Monochoria vaginalis) [%] | Herbicidal rate (%) Echinochloa crus-galli (Echinochloa crus-galli [4]) [%] | Herbicidal rate (%) Scirpus juncoides (Scirpus juncoides [5]) [%] | Herbicidal rate (%) Lindernia pyxidaria ([6]; Lindernia pyxidaria) [%] | Herbicidal rate (%) Monochoria vaginalis ([6]; Monochoria vaginalis) [%] | herbicidal rate, Amaranthus viridis (Amaranthus viridis [7]) [%] | herbicidal rate, Chenopodium album (Chenopodium album [8]) [%] | herbicidal rate, Echinochloa crus-galli (Echinochloa crus-galli [9]) [%] | herbicidal rate, southern crabgrass (southern crabgrass [10]) [%] | herbicidal effect (herbicidal rate), Amaranthus viridis (Amaranthus viridis [11]) [%] | herbicidal effect (herbicidal rate), Chenopodium album (Chenopodium album [12]) [%] | herbicidal effect (herbicidal rate), Echinochloa crus-galli (Echinochloa crus-galli [13]) [%] | herbicidal effect (herbicidal rate), southern crabgrass (southern crabgrass [14]) [%] | other results
1 | Cc1c(Cc2ccccc2N(C(=O)Oc2ccccc2)S(=O)(=O)C(F)(F)F)c(=O)on1C(C)(C)C [Compound 1-762] | 90 | 90 | 90 | 90 | 90 | 90 | 90 | 90 | 90 | 90 | 90 | 90 | 40 | 40 | 90 | 90 | –
2 | CCC(C)n1oc(=O)c(Cc2ccccc2N(C(=O)c2ccc(Cl)cc2)S(=O)(=O)C(F)(F)F)c1C (centres unmarked) [Compound 1-484] | 90 | 90 | 90 | 90 | 90 | 90 | 90 | 90 | 90 | 90 | 90 | 90 | 40 | 40 | 90 | 90 | –
3 | CCC(CC)Cn1oc(=O)c(Cc2ccccc2N(S(=O)(=O)C(F)(F)F)S(=O)(=O)C(F)(F)F)c1C [Compound 1-973] | 100 | 100 | 100 | 80 | 100 | 90 | 60 | 90 | 90 | 90 | 100 | 100 | 40 | 0 | 90 | 80 | –
4 | CCC(C)n1oc(=O)c(Cc2ccccc2N(C(=O)c2ccccn2)S(=O)(=O)C(F)(F)F)c1C (centres unmarked) [Compound 1-528] | 90 | 90 | 90 | 90 | 90 | 90 | 90 | 90 | 90 | 90 | 90 | 90 | 40 | 40 | 90 | 90 | –
5 | Cc1c(Cc2ccccc2N(C(=O)Oc2ccccc2)S(=O)(=O)C(F)(F)F)c(=O)on1C(C)c1ccccc1 (centres unmarked) [Compound 1-766] | 90 | 90 | 90 | 90 | 90 | 90 | 90 | 90 | 90 | 90 | 90 | 90 | 40 | 40 | 90 | 90 | –
6 | CCOC(=O)N(c1ccccc1Cc1c(C)n(C(C)(C)C)oc1=O)S(=O)(=O)C(F)(F)F [Compound 1-604] | 90 | 90 | 90 | 90 | 90 | 90 | 90 | 90 | 90 | 90 | 90 | 90 | 40 | 40 | 90 | 90 | –
7 | COCCOC(=O)N(c1ccccc1Cc1c(C)n(CCSC)oc1=O)S(=O)(=O)C(F)(F)F [Compound 1-735] | 90 | 90 | 90 | 90 | 90 | 90 | 90 | 90 | 90 | 90 | 90 | 90 | 40 | 40 | 90 | 90 | –
8 | CCC(C)n1oc(=O)c(Cc2ccccc2NS(=O)(=O)C(F)(F)F)c1C (centres unmarked) [Compound 1-102, 1,1,1-trifluoro-N-[2-[(3-methyl-5-oxo-2-sec-butyl-isoxazol-4-yl)methyl]phenyl]methanesulfonamide] | – | – | – | – | – | – | – | – | – | – | – | – | – | – | – | – | pest or weed control at 1200 g/ha (Echinochloa crus-galli [1]; in Echinochloa crus-galli, 336 h, read-out: Herbicidal rate (%) Echinochloa crus-galli): 100%; pest or weed control at 1200 g/ha (Scirpus juncoides [2]; in Schoenoplectiella juncoides, 336 h, read-out: Herbicidal rate (%) Scirpus juncoides): 100%; pest or weed control at 1200 g/ha ([3]; Monochoria vaginalis, read-out: Herbicidal rate (%) Monochoria vaginalis): 100%; pest or weed control at 1200 g/ha ([3]; in Lindernia, Lindernia pyxidaria, read-out: Herbicidal rate (%) Lindernia pyxidaria): 100%; pest or weed control at 1200 g/ha (Echinochloa crus-galli [4]; Echinochloa crus-galli, 336 h, read-out: herbicidal rate (%) Echinochloa crus-galli): 90%; pest or weed control at 1200 g/ha (Scirpus juncoides [5]; Schoenoplectiella juncoides, 336 h, read-out: herbicidal rate (%) Scirpus juncoides): 90%; pest or weed control at 1200 g/ha ([6]; Lindernia pyxidaria, read-out: herbicidal rate (%) Lindernia pyxidaria): 60%; pest or weed control at 1200 g/ha ([6]; Monochoria vaginalis, read-out: herbicidal rate (%) Monochoria vaginalis): 90%; pest or weed control at 1200 g/ha (Amaranthus viridis [7]; Amaranthus viridis, 336 h, read-out: herbicidal rate, Amaranthus viridis): 80%; pest or weed control at 1200 g/ha (Chenopodium album [8]; Chenopodium album, 336 h, read-out: herbicidal rate, Chenopodium album): 80%; pest or weed control at 1200 g/ha (Echinochloa crus-galli [9]; Echinochloa crus-galli, 336 h, read-out: herbicidal rate, Echinochloa crus-galli): 90%; pest or weed control at 1200 g/ha (southern crabgrass [10]; Digitaria ciliaris, 336 h, read-out: herbicidal rate, southern crabgrass): 90%; pest or weed control at 1200 g/ha (Amaranthus viridis [11]; Amaranthus viridis, 336 h, read-out: herbicidal effect (herbicidal rate), Amaranthus viridis): 40%; pest or weed control at 1200 g/ha (Chenopodium album [12]; Chenopodium album, 336 h, read-out: herbicidal effect (herbicidal rate), Chenopodium album): 0%; pest or weed control at 1200 g/ha (Echinochloa crus-galli [13]; Echinochloa crus-galli, 336 h, read-out: herbicidal effect (herbicidal rate), Echinochloa crus-galli): 90%; pest or weed control at 1200 g/ha (southern crabgrass [14]; Digitaria ciliaris, 336 h, read-out: herbicidal effect (herbicidal rate), southern crabgrass): 80%

Reference: patent US11109593B2, “Isoxazolin-5-one derivative and herbicide containing same as active ingredient” (HOKKO CHEMICAL INDUSTRY CO., LTD., priority 2017, dated 2021)
